# Values of other authors in patent publication US20080096857A1, “Photodynamic Therapy For The Treatment Of Hyperactive Sebaceous Gland Disorders Using Topically Applied Hydrophobic Green Porphyrins” (QLT Inc., priority 2004, published 2008).
# System: acne vulgaris
# Conditions: topical ALA-PDT of acne vulgaris; J. Invest Dermatol 115:183-192, 2000
smiles,measurement,value
"NCC(=O)CCC(=O)O [ALA, 5-aminolevulinic acid]",adverse events during and after the treatment,"serious adverse events that occurred during and after the treatment including erythema, edema, and sensations of pain, burning and itching"
